# Source: patent US20240252454A1, “COMPOSITION COMPRISING AN INHIBITOR OF MITOCHONDRIAL TRANSCRIPTION” (LEAD DISCOVERY CENTER GMBH, priority 2021, published 2024)
# Key:
# Assay in all cases: SRB assay, IMT combined with inhibitor
# Format in all cases: cell-based
# A549 = A549 (lung); concentration series of the labelled inhibitor + fixed concentration of IMT (3S)-1-[(2R)-2-[4-(2-chloro-4-fluoro-phenyl)-2-oxo-chromen-7-yl]oxypropanoyl]piperidine-3-carboxylic acid (Table 3: 40 nM, 120 h); negative=synergistic, positive=antagonistic
# Summary of the method: (§1)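 Fixed 40 nM (3S)-1-[(2R)-2-[4-(2-chloro-4-fluoro-phenyl)-2-oxo-chromen-7-yl]oxypropanoyl]piperidine-3-carboxylic acid was co-dosed with serially diluted MAPK SOC inhibitors for 120 h. Growth read by SRB; 5 mM glucose, at least duplicate independent runs.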
# GRANTA-519 = GRANTA-519 (hematological); concentration series of the labelled inhibitor + fixed concentration of IMT (3S)-1-[(2R)-2-[4-(2-chloro-4-fluoro-phenyl)-2-oxo-chromen-7-yl]oxypropanoyl]piperidine-3-carboxylic acid (Table 3: 40 nM, 120 h); negative=synergistic, positive=antagonistic
# Summary of the method: as §1
# PANC1 = PANC1 (pancreas); concentration series of the labelled inhibitor + fixed concentration of IMT (3S)-1-[(2R)-2-[4-(2-chloro-4-fluoro-phenyl)-2-oxo-chromen-7-yl]oxypropanoyl]piperidine-3-carboxylic acid (Table 3: 40 nM, 120 h); negative=synergistic, positive=antagonistic
# Summary of the method: as §1
# HCT116 = HCT116 (colon); concentration series of the labelled inhibitor + fixed concentration of IMT (3S)-1-[(2R)-2-[4-(2-chloro-4-fluoro-phenyl)-2-oxo-chromen-7-yl]oxypropanoyl]piperidine-3-carboxylic acid (Table 3: 40 nM, 120 h); negative=synergistic, positive=antagonistic
# Summary of the method: as §1
# LOVO = LOVO (colon); concentration series of the labelled inhibitor + fixed concentration of IMT (3S)-1-[(2R)-2-[4-(2-chloro-4-fluoro-phenyl)-2-oxo-chromen-7-yl]oxypropanoyl]piperidine-3-carboxylic acid (Table 3: 40 nM, 120 h); negative=synergistic, positive=antagonistic
# Summary of the method: as §1
# CALU6 = CALU6 (lung); concentration series of the labelled inhibitor + fixed concentration of IMT (3S)-1-[(2R)-2-[4-(2-chloro-4-fluoro-phenyl)-2-oxo-chromen-7-yl]oxypropanoyl]piperidine-3-carboxylic acid (Table 3: 40 nM, 120 h); negative=synergistic, positive=antagonistic
# Summary of the method: as §1
# U2OS = U2OS (bone); concentration series of the labelled inhibitor + fixed concentration of IMT (3S)-1-[(2R)-2-[4-(2-chloro-4-fluoro-phenyl)-2-oxo-chromen-7-yl]oxypropanoyl]piperidine-3-carboxylic acid (Table 3: 40 nM, 120 h); negative=synergistic, positive=antagonistic
# Summary of the method: as §1
# MHHES1 = MHHES1 (bone); concentration series of the labelled inhibitor + fixed concentration of IMT (3S)-1-[(2R)-2-[4-(2-chloro-4-fluoro-phenyl)-2-oxo-chromen-7-yl]oxypropanoyl]piperidine-3-carboxylic acid (Table 3: 40 nM, 120 h); negative=synergistic, positive=antagonistic
# Summary of the method: as §1
# SKOV3 = SKOV3 (ovary); concentration series of the labelled inhibitor + fixed concentration of IMT (3S)-1-[(2R)-2-[4-(2-chloro-4-fluoro-phenyl)-2-oxo-chromen-7-yl]oxypropanoyl]piperidine-3-carboxylic acid (Table 3: 40 nM, 120 h); negative=synergistic, positive=antagonistic
# Summary of the method: as §1
# HEPG2 = HEPG2 (liver); concentration series of the labelled inhibitor + fixed concentration of IMT (3S)-1-[(2R)-2-[4-(2-chloro-4-fluoro-phenyl)-2-oxo-chromen-7-yl]oxypropanoyl]piperidine-3-carboxylic acid (Table 3: 40 nM, 120 h); negative=synergistic, positive=antagonistic
# Summary of the method: as §1
# NCIH460 = NCIH460 (lung); concentration series of the labelled inhibitor + fixed concentration of IMT (3S)-1-[(2R)-2-[4-(2-chloro-4-fluoro-phenyl)-2-oxo-chromen-7-yl]oxypropanoyl]piperidine-3-carboxylic acid (Table 3: 40 nM, 120 h); negative=synergistic, positive=antagonistic
# Summary of the method: as §1
# A673 = A673 (muscle); concentration series of the labelled inhibitor + fixed concentration of IMT (3S)-1-[(2R)-2-[4-(2-chloro-4-fluoro-phenyl)-2-oxo-chromen-7-yl]oxypropanoyl]piperidine-3-carboxylic acid (Table 3: 40 nM, 120 h); negative=synergistic, positive=antagonistic
# Summary of the method: as §1
# MIAPACA2 = MIAPACA2 (pancreas); concentration series of the labelled inhibitor + fixed concentration of IMT (3S)-1-[(2R)-2-[4-(2-chloro-4-fluoro-phenyl)-2-oxo-chromen-7-yl]oxypropanoyl]piperidine-3-carboxylic acid (Table 3: 40 nM, 120 h); negative=synergistic, positive=antagonistic
# Summary of the method: as §1
# A375 = A375 (skin); concentration series of the labelled inhibitor + fixed concentration of IMT (3S)-1-[(2R)-2-[4-(2-chloro-4-fluoro-phenyl)-2-oxo-chromen-7-yl]oxypropanoyl]piperidine-3-carboxylic acid (Table 3: 40 nM, 120 h); negative=synergistic, positive=antagonistic
# Summary of the method: as §1
# U87MG = U87MG (brain); concentration series of the labelled inhibitor + fixed concentration of IMT (3S)-1-[(2R)-2-[4-(2-chloro-4-fluoro-phenyl)-2-oxo-chromen-7-yl]oxypropanoyl]piperidine-3-carboxylic acid (Table 3: 40 nM, 120 h); negative=synergistic, positive=antagonistic
# Summary of the method: as §1
compound,measurement,setting,value
CC(C)Nc1cc(-c2c[nH]c(C(=O)N[C@H](CO)c3cccc(Cl)c3)c2)c(Cl)cn1 [Ulixertinib],difference between the calculated combinatorial index (BLISS) and the observed combinatorial effect,A549,−0.0185
same,difference between the calculated combinatorial index (BLISS) and the observed combinatorial effect,GRANTA-519,0.0393
same,difference between the calculated combinatorial index (BLISS) and the observed combinatorial effect,PANC1,0.0634
same,difference between the calculated combinatorial index (BLISS) and the observed combinatorial effect,HCT116,−0.0066
same,difference between the calculated combinatorial index (BLISS) and the observed combinatorial effect,LOVO,0.0039
same,difference between the calculated combinatorial index (BLISS) and the observed combinatorial effect,CALU6,0.0100
same,difference between the calculated combinatorial index (BLISS) and the observed combinatorial effect,U2OS,−0.0165
same,difference between the calculated combinatorial index (BLISS) and the observed combinatorial effect,MHHES1,0.0992
same,difference between the calculated combinatorial index (BLISS) and the observed combinatorial effect,SKOV3,0.0284
same,difference between the calculated combinatorial index (BLISS) and the observed combinatorial effect,HEPG2,0.0953
same,difference between the calculated combinatorial index (BLISS) and the observed combinatorial effect,NCIH460,0.0088
same,difference between the calculated combinatorial index (BLISS) and the observed combinatorial effect,A673,0.0876
same,difference between the calculated combinatorial index (BLISS) and the observed combinatorial effect,MIAPACA2,0.0431
same,difference between the calculated combinatorial index (BLISS) and the observed combinatorial effect,A375,0.0427
same,difference between the calculated combinatorial index (BLISS) and the observed combinatorial effect,U87MG,0.0859
